# Data: publication PMC8296573, “Synthesis and Biological Evaluation of Fingolimod Derivatives as Antibacterial Agents” (ACS Omega, 2021)
# Like-named read-outs stand apart in the source and are kept apart here.
# Legend:
# S. aureus ATCC 25923 [1] = test: Antibacterial activity, pre-exposure (planktonic cells and biofilm formation); format: cell-based, Staphylococcus aureus; conditions: for MIC / inhibition at 5 µM / inhibition at 10 µM / inhibition at 15 µM / inhibition at 25 µM: Staphylococcus aureus, ATCC25923; for inhibition at 5 µM / inhibition at 10 µM / inhibition at 15 µM / inhibition at 25 µM / Average inhibition %, biofilms viability / Average inhibition %, planktonic cells viability: pre-exposure, ± SD
# In short: (§1)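 Compounds in DMSO were plated before bacteria were added (pre-exposure) and incubated 18 h aerobically at 37 °C with shaking. Planktonic cells were read by OD and resazurin fluorescence (20 μM final; ex 560/em 590 nm). Biofilms were read by resazurin, then crystal violet (A595) for total biomass.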
# S. aureus ATCC 25923 [2] = test: Antibacterial activity, post-exposure on preformed 18-h-old biofilms; format: cell-based, Staphylococcus aureus; conditions: ± SD; for inhibition at 25 µM / inhibition at 50 µM / inhibition at 100 µM / inhibition at 200 µM: Staphylococcus aureus; for inhibition at 25 µM: ATCC25923, 25 µM; for inhibition at 50 µM: ATCC25923, 50 µM; for inhibition at 100 µM: ATCC25923, 100 µM; for inhibition at 200 µM: ATCC25923, 200 µM
# In short: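 Biofilms grown 18 h without compound, medium then replaced and compound added for a further 24 h. Planktonic OD and resazurin (20 μM final) fluorescence (ex 560/em 590 nm) read; washed biofilms stained with 20 μM resazurin 30 min at 37 °C, then ethanol-fixed and crystal violet-stained, absorbance 595 nm.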
# A. baumannii NCTC 13423 = test: Antibacterial activity, pre-exposure; format: cell-based, Acinetobacter baumannii; conditions: for Average inhibition %, biofilms viability / Average inhibition %, planktonic cells viability / inhibition at 10 µM / inhibition at 15 µM / inhibition at 25 µM / inhibition at 50 µM: A. baumannii NCTC 13423, pre-exposure, ± SD; for inhibition at 10 µM / inhibition at 15 µM / inhibition at 25 µM / inhibition at 50 µM: Acinetobacter baumannii, NCTC13423
# In short: as §1
# P. aeruginosa ATCC 9027 = test: Antibacterial activity, pre-exposure; format: cell-based, Pseudomonas aeruginosa; conditions: for Average inhibition %, biofilms viability / Average inhibition %, planktonic cells viability / inhibition at 50 µM / inhibition at 100 µM / inhibition at 150 µM / inhibition at 200 µM: P. aeruginosa ATCC 9027, pre-exposure, ± SD; for inhibition at 50 µM / inhibition at 100 µM / inhibition at 150 µM / inhibition at 200 µM: Pseudomonas aeruginosa, ATCC9027
# In short: as §1
# [3] = 10 µM, read-out: Average inhibition %, biofilms biomass
# [4] = 10 µM, read-out: Average inhibition %, planktonic cells turbidity
# [5] = 15 µM, read-out: Average inhibition %, biofilms biomass
# [6] = 15 µM, read-out: Average inhibition %, planktonic cells turbidity
# [7] = 25 µM, read-out: Average inhibition %, biofilms biomass
# [8] = 25 µM, read-out: Average inhibition %, planktonic cells turbidity
# [9] = read-out: Average inhibition %, biofilms biomass
# [10] = read-out: Average inhibition %, planktonic cells turbidity
# [11] = 50 µM, read-out: Average inhibition %, biofilms biomass
# [12] = 50 µM, read-out: Average inhibition %, planktonic cells turbidity
smiles,measurement,setting,value
"CCCCCCCCCCOc1ccc(CCC(N)(CO)CO)cc1 [Compound 49, 2-Amino-2-[4-(decyloxy)phenethyl]propane-1,3-diol]",MIC,"S. aureus ATCC 25923 [1]; lowest concentration with no visible growth (>90% inhibition of turbidity and viability of planktonic cells), 18 h, read-out: MIC S. aureus ATCC 25923",50 to 100 µM
same,inhibition at 5 µM,"S. aureus ATCC 25923 [1]; 5 µM, read-out: Average inhibition %, biofilms biomass",21.1 ± 15.7%
same,inhibition at 5 µM,"S. aureus ATCC 25923 [1]; 5 µM, read-out: Average inhibition %, planktonic cells turbidity",25 ± 31.1%
same,inhibition at 10 µM,S. aureus ATCC 25923 [1]; [3],24.7 ± 21.7%
same,inhibition at 10 µM,S. aureus ATCC 25923 [1]; [4],40.2 ± 21.5%
same,inhibition at 15 µM,S. aureus ATCC 25923 [1]; [5],42.1 ± 13.8%
same,inhibition at 15 µM,S. aureus ATCC 25923 [1]; [6],32.7 ± 33.7%
same,inhibition at 25 µM,S. aureus ATCC 25923 [1]; [7],65 ± 8%
same,inhibition at 25 µM,S. aureus ATCC 25923 [1]; [8],52 ± 35.7%
same,MIC,S. aureus ATCC 25923 [1]; read-out: MIC (S. aureus),50 to 100 µM
same,"Average inhibition %, biofilms viability",S. aureus ATCC 25923 [1]; 5 µM,21.8 ± 13.4%
same,"Average inhibition %, planktonic cells viability",S. aureus ATCC 25923 [1]; 5 µM,5.8 ± 6.5%
same,"Average inhibition %, biofilms viability",S. aureus ATCC 25923 [1]; 10 µM,19.2 ± 19.6%
same,"Average inhibition %, planktonic cells viability",S. aureus ATCC 25923 [1]; 10 µM,16 ± 20.8%
same,"Average inhibition %, biofilms viability",S. aureus ATCC 25923 [1]; 15 µM,34.9 ± 12.5%
same,"Average inhibition %, planktonic cells viability",S. aureus ATCC 25923 [1]; 15 µM,6.5 ± 7.4%
same,"Average inhibition %, biofilms viability",S. aureus ATCC 25923 [1]; 25 µM,46.4 ± 5.4%
same,"Average inhibition %, planktonic cells viability",S. aureus ATCC 25923 [1]; 25 µM,34.4 ± 41.1%
same,"Average inhibition %, biofilms viability",S. aureus ATCC 25923 [2]; 25 µM,23.1 ± 12%
same,"Average inhibition %, planktonic cells viability",S. aureus ATCC 25923 [2]; 25 µM,0 ± 0%
same,"Average inhibition %, biofilms viability",S. aureus ATCC 25923 [2]; 50 µM,31.6 ± 11.1%
same,"Average inhibition %, planktonic cells viability",S. aureus ATCC 25923 [2]; 50 µM,0 ± 0%
same,"Average inhibition %, biofilms viability",S. aureus ATCC 25923 [2]; 100 µM,30.4 ± 13.1%
same,"Average inhibition %, planktonic cells viability",S. aureus ATCC 25923 [2]; 100 µM,6 ± 10.4%
same,"Average inhibition %, biofilms viability",S. aureus ATCC 25923 [2]; 200 µM,18.9 ± 12.3%
same,"Average inhibition %, planktonic cells viability",S. aureus ATCC 25923 [2]; 200 µM,24.6 ± 9.6%
same,inhibition at 25 µM,S. aureus ATCC 25923 [2]; [9],46.2 ± 2.6%
same,inhibition at 25 µM,S. aureus ATCC 25923 [2]; [10],1 ± 1.8%
same,inhibition at 50 µM,S. aureus ATCC 25923 [2]; [9],41.6 ± 16.2%
same,inhibition at 50 µM,S. aureus ATCC 25923 [2]; [10],6.6 ± 6.1%
same,inhibition at 100 µM,S. aureus ATCC 25923 [2]; [9],47.3 ± 10.1%
same,inhibition at 100 µM,S. aureus ATCC 25923 [2]; [10],18.3 ± 26.2%
same,inhibition at 200 µM,S. aureus ATCC 25923 [2]; [9],41.4 ± 16.7%
same,inhibition at 200 µM,S. aureus ATCC 25923 [2]; [10],45 ± 23.1%
same,"Average inhibition %, biofilms viability",A. baumannii NCTC 13423; 10 µM,0 ± 0%
same,"Average inhibition %, planktonic cells viability",A. baumannii NCTC 13423; 10 µM,12 ± 4.3%
same,"Average inhibition %, biofilms viability",A. baumannii NCTC 13423; 15 µM,0 ± 0%
same,"Average inhibition %, planktonic cells viability",A. baumannii NCTC 13423; 15 µM,8.5 ± 10.6%
same,"Average inhibition %, biofilms viability",A. baumannii NCTC 13423; 25 µM,0 ± 0%
same,"Average inhibition %, planktonic cells viability",A. baumannii NCTC 13423; 25 µM,2.6 ± 4.5%
same,"Average inhibition %, biofilms viability",A. baumannii NCTC 13423; 50 µM,9 ± 8.3%
same,"Average inhibition %, planktonic cells viability",A. baumannii NCTC 13423; 50 µM,0 ± 0%
same,inhibition at 10 µM,A. baumannii NCTC 13423; [3],0%
same,inhibition at 10 µM,A. baumannii NCTC 13423; [4],0%
same,inhibition at 15 µM,A. baumannii NCTC 13423; [5],1.5 ± 2.4%
same,inhibition at 15 µM,A. baumannii NCTC 13423; [6],0%
same,inhibition at 25 µM,A. baumannii NCTC 13423; [7],1.1 ± 1.9%
same,inhibition at 25 µM,A. baumannii NCTC 13423; [8],0%
same,inhibition at 50 µM,A. baumannii NCTC 13423; [11],4.1 ± 7.2%
same,inhibition at 50 µM,A. baumannii NCTC 13423; [12],1.2 ± 2.1%
same,MIC A. baumannii NCTC 13423,"A. baumannii NCTC 13423; pre-exposure, Inactive = no activity up to 50 μM, > = some inhibition but no MIC reached",Inactive
same,"Average inhibition %, biofilms viability",P. aeruginosa ATCC 9027; 50 µM,1.1 ± 1%
same,"Average inhibition %, planktonic cells viability",P. aeruginosa ATCC 9027; 50 µM,11.2 ± 5%
same,"Average inhibition %, biofilms viability",P. aeruginosa ATCC 9027; 100 µM,1.4 ± 1.7%
same,"Average inhibition %, planktonic cells viability",P. aeruginosa ATCC 9027; 100 µM,11 ± 9.5%
same,"Average inhibition %, biofilms viability",P. aeruginosa ATCC 9027; 150 µM,1.8 ± 2.2%
same,"Average inhibition %, planktonic cells viability",P. aeruginosa ATCC 9027; 150 µM,10.3 ± 10.8%
same,"Average inhibition %, biofilms viability",P. aeruginosa ATCC 9027; 200 µM,4.2 ± 7.4%
same,"Average inhibition %, planktonic cells viability",P. aeruginosa ATCC 9027; 200 µM,8.8 ± 10.7%
same,inhibition at 50 µM,P. aeruginosa ATCC 9027; [11],5.1 ± 7.7%
same,inhibition at 50 µM,P. aeruginosa ATCC 9027; [12],11.2 ± 9.7%
same,inhibition at 100 µM,"P. aeruginosa ATCC 9027; 100 µM, read-out: Average inhibition %, biofilms biomass",2.5 ± 1.1%
same,inhibition at 100 µM,"P. aeruginosa ATCC 9027; 100 µM, read-out: Average inhibition %, planktonic cells turbidity",19.8 ± 7.4%
same,inhibition at 150 µM,"P. aeruginosa ATCC 9027; 150 µM, read-out: Average inhibition %, biofilms biomass",2.8 ± 4.2%
same,inhibition at 150 µM,"P. aeruginosa ATCC 9027; 150 µM, read-out: Average inhibition %, planktonic cells turbidity",11.4 ± 10.1%
same,inhibition at 200 µM,"P. aeruginosa ATCC 9027; 200 µM, read-out: Average inhibition %, biofilms biomass",2.2 ± 2.8%
same,inhibition at 200 µM,"P. aeruginosa ATCC 9027; 200 µM, read-out: Average inhibition %, planktonic cells turbidity",16.7 ± 3%
same,MIC P. aeruginosa ATCC 9027,"P. aeruginosa ATCC 9027; pre-exposure, Inactive = no activity up to 200 μM, > = some inhibition but no MIC reached",Inactive
